{
  "source": "paper PMC7125588",
  "about": "(Tetrahedron, 2011)",
  "key": {"influenza A (H1N1)": {"tested_on": "influenza A (H1N1)", "assay": "microbe, parasite or virus in culture", "type": "cell-based", "settings": "H1N1, MDCK, read-out: Anti-influenza EC50 A (H1N1)"}, "influenza A (H3N2)": {"tested_on": "influenza A (H3N2)", "assay": "microbe, parasite or virus in culture", "type": "cell-based", "settings": "H3N2, MDCK, read-out: Anti-influenza EC50 A (H3N2)"}, "influenza B virus": {"tested_on": "influenza B virus", "assay": "microbe, parasite or virus in culture", "type": "cell-based", "settings": "MDCK, read-out: Anti-influenza EC50 B"}, "influenza virus A": {"tested_on": "influenza virus A", "assay": "Anti-influenza virus A activity as summarised in the text", "type": "cell-based", "settings": "conclusions"}, "MDCK cell cultures": {"tested_on": "MDCK cell cultures", "settings": "for Cytotoxicity MCC: dog"}, "in vitro": {"assay": "in vitro", "settings": "dog"}},
  "data": [
    {"smiles": "Nc1nc(P(=O)(O)O)nc(N)c1Cl", "note": "[7a, 4,6-Diamino-5-chloropyrimidin-2-ylphosphonic acid]", "values": [
      {"measurement": "EC50", "setting": "influenza A (H1N1)", "value": "50 ± 14", "unit": "µM"},
      {"measurement": "EC50", "setting": "influenza A (H3N2)", "value": "28 ± 10", "unit": "µM"},
      {"measurement": "EC50", "setting": "influenza B virus", "value": "72 ± 68", "unit": "µM"},
      {"measurement": "Anti-influenza virus A activity (in words)", "setting": "influenza virus A", "value": "middle micromolar range"},
      {"measurement": "Toxicity (in words)", "setting": "MDCK cell cultures; Table 2", "value": "no toxicity"},
      {"measurement": "Cytotoxicity MCC", "setting": "MDCK cell cultures", "value": ">100", "unit": "µM"},
      {"measurement": "CC50", "setting": "in vitro", "value": "> 100", "unit": "µM"}
    ]},
    {"smiles": "NC12CC3CC(CC(C3)C1)C2", "note": "[Amantadine]", "values": [
      {"measurement": "EC50", "setting": "influenza A (H1N1)", "value": "36.8 ± 2.6", "unit": "µM"},
      {"measurement": "EC50", "setting": "influenza A (H3N2)", "value": "> 200", "unit": "µM"},
      {"measurement": "EC50", "setting": "influenza B virus", "value": "> 200", "unit": "µM"},
      {"measurement": "Cytotoxicity MCC", "setting": "MDCK cell cultures", "value": ">100", "unit": "µM"},
      {"measurement": "CC50", "setting": "in vitro", "value": "> 100", "unit": "µM"}
    ]},
    {"smiles": "CCOC(=O)C1=C[C@@H](OC(CC)CC)[C@H](NC(C)=O)[C@@H](N)C1", "note": "[Oseltamivir]", "values": [
      {"measurement": "EC50", "setting": "influenza A (H1N1)", "value": "[…]"},
      {"measurement": "EC50", "setting": "influenza A (H3N2)", "value": "[…]"},
      {"measurement": "EC50", "setting": "influenza B virus", "value": "26 ± 27.7", "unit": "µM"},
      {"measurement": "Cytotoxicity MCC", "setting": "MDCK cell cultures", "value": ">100", "unit": "µM"},
      {"measurement": "CC50", "setting": "in vitro", "value": "> 100", "unit": "µM"}
    ]},
    {"smiles": "NC(=O)c1ncn([C@@H]2O[C@H](CO)[C@@H](O)[C@H]2O)n1", "note": "[Ribavirin]", "values": [
      {"measurement": "EC50", "setting": "influenza A (H1N1)", "value": "9.2 ± 0.8", "unit": "µM"},
      {"measurement": "EC50", "setting": "influenza A (H3N2)", "value": "8.7 ± 3.8", "unit": "µM"},
      {"measurement": "EC50", "setting": "influenza B virus", "value": "5.6 ± 2.8", "unit": "µM"},
      {"measurement": "Cytotoxicity MCC", "setting": "MDCK cell cultures", "value": ">100", "unit": "µM"},
      {"measurement": "CC50", "setting": "in vitro", "value": "> 100", "unit": "µM"}
    ]},
    {"smiles": "CC(N)C12CC3CC(CC(C3)C1)C2", "note": "(stereo not drawn) [Rimantadine]", "values": [
      {"measurement": "EC50", "setting": "influenza A (H1N1)", "value": "13.2 ± 0.2", "unit": "µM"},
      {"measurement": "EC50", "setting": "influenza A (H3N2)", "value": "> 500", "unit": "µM"},
      {"measurement": "EC50", "setting": "influenza B virus", "value": "> 500", "unit": "µM"},
      {"measurement": "Cytotoxicity MCC", "setting": "MDCK cell cultures", "value": ">100", "unit": "µM"},
      {"measurement": "CC50", "setting": "in vitro", "value": "> 100", "unit": "µM"}
    ]}
  ]
}
